Data published in the supplement of paper PMC9013687.

Legend:
Danio rerio embryo [1] = conditions: exposure time: 4 dpf
Experimental: (§1)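 Zebrafish embryos (UFZ-OBI strain) were exposed from 2 hpf for 48 h (2 dpf) or 96 h (4 dpf) at 28 °C; spontaneous tail coiling was scored at 25 hpf. Morphological features from automated image analysis (FishInspector), heart rate and locomotor response were fitted with drc models. Quantal endpoints were dichotomised at 2.5 SD from controls and fitted with a log-logistic model; heart rate, pigmentation and STC were normalised to the replicate control mean. Betamethasone was tested as betamethasone dipropionate, diflorasone as diflorasone diacetate.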

Danio rerio embryo [2] = system: Danio rerio embryo
Experimental: as §1

Danio rerio embryo [3] = conditions: exposure time: 4 dpf; remark: listed apart in the source
Experimental: as §1

Danio rerio embryo [4] = system: Danio rerio embryo; remark: listed apart in the source
Experimental: as §1

Danio rerio embryo [5] = assay: EC50 Eye size_Decrease; conditions: exposure time: 2 dpf
Experimental: as §1

Danio rerio embryo [6] = assay: EC50 Curvature_Increase; conditions: exposure time: 2 dpf
Experimental: as §1

Danio rerio embryo [7] = assay: EC50 Body length_Decrease
Experimental: as §1

Danio rerio embryo [8] = assay: EC50 Bladder size_Decrease; conditions: exposure time: 4 dpf
Experimental: as §1

Danio rerio embryo [9] = assay: EC50 Pericard size_Increase; conditions: exposure time: 2 dpf
Experimental: as §1

Danio rerio embryo [10] = assay: EC50 Yolk sac size_Increase; conditions: exposure time: 4 dpf
Experimental: as §1

Danio rerio embryo [11] = assay: EC50 Eye-jaw distance_Decrease; conditions: exposure time: 4 dpf
Experimental: as §1

Danio rerio embryo [12] = assay: EC10 LMR dark; higher = less potent; conditions: exposure time: 4 dpf
Experimental: as §1

Danio rerio embryo [13] = assay: EC20 LMR dark; higher = less potent; conditions: exposure time: 4 dpf
Experimental: as §1

Danio rerio embryo [14] = assay: EC10 Heart rate; higher = less potent
Experimental: as §1

Danio rerio embryo [15] = assay: EC10 Lack of SB; higher = less potent; conditions: exposure time: 4 dpf
Experimental: as §1

Danio rerio embryo [16] = assay: EC20 Lack of SB; higher = less potent; conditions: exposure time: 4 dpf
Experimental: as §1

Danio rerio embryo [17] = assay: EC20 Any effect; higher = less potent
Experimental: as §1

Danio rerio embryo [18] = assay: EC10 Any effect; higher = less potent
Experimental: as §1

Danio rerio embryo [19] = assay: EC20 Heart rate; higher = less potent; conditions: exposure time: 2 dpf
Experimental: as §1

SMILES: CC1(C)OC(=O)C(OCC2CC2)=C1c1ccc(S(C)(=O)=O)cc1 [Firocoxib]
- EC50 Lack of SB (Danio rerio embryo [1]): 64.6 µM
- EC50 Any effect (Danio rerio embryo [2]; exposure time: 2 dpf): 121 µM
- EC50 Any effect (Danio rerio embryo [2]; exposure time: 4 dpf): 147 µM
- EC50 LMR dark (Danio rerio embryo [3]): 53.7 µM
- EC50 Heart rate (Danio rerio embryo [4]; exposure time: 2 dpf): 181 µM
- EC50 Heart rate (Danio rerio embryo [4]; exposure time: 4 dpf): 56.2 µM
- EC50 Eye size Decrease (Danio rerio embryo [5]): 128 µM
- EC50 Curvature Increase (Danio rerio embryo [6]): 109 µM
- EC50 Body length Decrease (Danio rerio embryo [7]; exposure time: 2 dpf): 109 µM
- EC50 Body length Decrease (Danio rerio embryo [7]; exposure time: 4 dpf): 113 µM
- EC50 Bladder size Decrease (Danio rerio embryo [8]): 56.3 µM
- EC50 Pericard size Increase (Danio rerio embryo [9]): 108 µM
- EC50 Yolk sac size Increase (Danio rerio embryo [10]): 128 µM
- EC50 Eye-jaw distance Decrease (Danio rerio embryo [11]): 123 µM
- EC10 LMR dark (Danio rerio embryo [12]): 13.9 µM
- EC20 LMR dark (Danio rerio embryo [13]): 22.9 µM
- EC10 Heart rate (Danio rerio embryo [14]; exposure time: 2 dpf): 86.2 µM
- EC10 Heart rate (Danio rerio embryo [14]; exposure time: 4 dpf): 31.2 µM
- EC10 Lack of SB (Danio rerio embryo [15]): 34.7 µM
- EC20 Lack of SB (Danio rerio embryo [16]): 43.7 µM
- EC20 Any effect (Danio rerio embryo [17]; exposure time: 2 dpf): 73.7 µM
- EC20 Any effect (Danio rerio embryo [17]; exposure time: 4 dpf): 85.4 µM
- EC10 Any effect (Danio rerio embryo [18]; exposure time: 2 dpf): 55.3 µM
- EC10 Any effect (Danio rerio embryo [18]; exposure time: 4 dpf): 62.1 µM
- EC20 Heart rate (Danio rerio embryo [19]): 113 µM
